≈ marks a conversion by molar mass, not a printed value. Square brackets hold non-standard residues; d marks the D form. Ends that are not written are not given here. Peptide text beside a SMILES is read from it. * marks the point of attachment. X1 = C[N+](C)(C)[C@@H](Cc1ccccc1)C(=O)*; X2 = CC(C)C[C@@H](C(=O)*)[N+](C)(C)C; NMeF = CN[C@@H](Cc1ccccc1)C(=O)O; NMeI = CC[C@H](C)[C@H](NC)C(=O)O
Tests used:
[1] = test system: Staphylococcus aureus (ATCC 29213); assay: microbe, parasite or virus in culture; settings: for S. aureus MIC: no change in OD620 between time 0 and 21 hours; for S. aureus IC50: Example 8, individual peptides; for MIC: Staphylococcus aureus, ATCC29213, read-out: MIC Value; for MIC Value: Table 4, minimum concentration needed to inhibit about 100 percent bacterial growth
Method: Concentrations of those 5X permethylated peptide mixtures that inhibited cellular growth by 50 percent (IC50) values were determined.
This culture was reinoculated and incubated at 37° C. to reach the exponential phase of bacterial growth; i.e., a final bacterial suspension containing about 10^5 to 5×10^5 colony-forming units (CFU)/ml. The concentration of cells was established by plating 100 μl of different dilutions of the culture solution (e.g., 10^-2, 10^-3 and 10^-4) onto solid agar plates. Following an overnight (about 18 hours) incubation at 37° C., the CFU thus formed were counted on each agar plate.
96-Well tissue culture plates were utilized, with eight wells per plate containing only medium as control blanks, whereas eight other wells contained medium plus cells as a positive growth control. These controls were used to detect possible medium contamination and to provide a measure of uninhibited growth of the microorganisms.
For determination of IC50 values (concentrations necessary to inhibit 50 percent growth of bacteria), peralkylated oligopeptide sets were added to the bacterial suspension at concentrations noted before. The plates were incubated overnight (about 18 hours) at 37° C., and the optical density (OD) determined at 620 nm after different times of incubation. IC50 values were then determined from the OD data.
Assays using S. aureus were carried out as described before. […] To initiate the exponential phase of bacterial growth prior to the assay, a sample of bacteria grown overnight (about 18 hours) at 37° C. in cation-adjusted Mueller Hinton broth (CAMM, for E. coli and S. aureus--Becton Dickinson Microbiology Systems, Cockeysville, Md.), or Brain Heart Infusion broth (BHI, for S. sanguis), was reinoculated in a 2X broth and incubated at 37° C. MRSA was grown at 35° C. in cation-adjusted MH broth in a similar manner. Prior to the assay, two colonies of newly grown C. albicans culture were inoculated in 5ml of phosphate buffer saline (PBS-35mM phosphate buffer, 0.15M NaCl-pH 7.0), and diluted in yeast medium broth. The bacteria and yeast suspensions were adjusted turbidimetrically so that a final concentration of 10^5 to 5×10^5 colony-forming units (CFU)/ml was used in all assays.
The plates were then incubated overnight at 37° C. […] The concentration necessary to inhibit 50 percent bacterial growth (IC50) was then calculated using the software program […] (ISI, San Diego, Calif.). […] In a similar manner, the plates containing C. albicans suspension were incubated for 48 hours at 30° C.

[2] = test system: human red blood cells (RBC's); assay: Hemolytic activity on human red blood cells; format: cell-based; settings: 0.25 percent RBC suspension, one hour at 37° C.
Method: Hemolytic activities of the peptides were determined using human red blood cells (RBC's). The assays were carried out in 96-well tissue culture plates against a 0.25 percent RBC suspension as described in Blondelie et al., Biochim. Biophys. Acta, 1202:331-336 (1993), incorporated herein by reference. Briefly, individual permethylated peptides or peptide mixtures were added to the RBC solution at concentrations derived from serial two-fold dilutions varying from […]. Following a one hour incubation at 37° C., the plates were centrifuged at 2800 rpm for 5 minutes. The supernatant was separated from the pellet and its OD measured at 414 nm. Triton (1 percent) and PBS were used as 100 percent and 0 percent hemolysis controls, respectively.

[3] = test system: Methicillin-resistant Staphylococcus aureus (MRSA) ATCC 33591; assay: Antimicrobial activity against MRSA (growth inhibition); format: cell-based; settings: for MRSA MIC: no change in OD620 between time 0 and 21 hours
Method: (§1) Assays using S. aureus were carried out as described before. Methicillin-resistant Staphylococcus aureus (MRSA) ATCC 33591, Streptococcus sangus ATCC 10566, Escherichia coli ATCC 25922 and Candida albicans ATCC 10231 were used in the bioassays (ATCC, Rockville, Md.). To initiate the exponential phase of bacterial growth prior to the assay, a sample of bacteria grown overnight (about 18 hours) at 37° C. in cation-adjusted Mueller Hinton broth (CAMM, for E. coli and S. aureus--Becton Dickinson Microbiology Systems, Cockeysville, Md.), or Brain Heart Infusion broth (BHI, for S. sanguis), was reinoculated in a 2X broth and incubated at 37° C. MRSA was grown at 35° C. in cation-adjusted MH broth in a similar manner. Prior to the assay, two colonies of newly grown C. albicans culture were inoculated in 5ml of phosphate buffer saline (PBS-35mM phosphate buffer, 0.15M NaCl-pH 7.0), and diluted in yeast medium broth. The bacteria and yeast suspensions were adjusted turbidimetrically so that a final concentration of 10^5 to 5×10^5 colony-forming units (CFU)/ml was used in all assays.
(§2) The assays were carried out in 96-well tissue culture plates (Costar, Pleasanton, Calif.) as described in Blondelie et al., Biochemistry, 31:12688-12694 (1992), incorporated herein by reference. In brief, the bacterial suspension was added to an equal volume of the mixture of permeythylated compounds diluted in H2 O at concentrations derived from serial two-fold dilutions varying from 2500 μg/ml to 1 μg/ml. The plates were then incubated overnight at 37° C. The relative percent growth found for each compound (or mixture of compounds) was then determined by the optical density at 620 nm (OD620) using a Titertek Multiskan Plus apparatus (Flow Laboratories, McLean, Va.). The concentration necessary to inhibit 50 percent bacterial growth (IC50) was then calculated using the software program […] (ISI, San Diego, Calif.). […] In a similar manner, the plates containing C. albicans suspension were incubated for 48 hours at 30° C.

[4] = test system: Streptococcus sangus ATCC 10566; assay: Assays against S. sanguis (growth inhibition); format: cell-based, Streptococcus sanguis; settings: for S. sanguis IC50 / S. sanguis MIC: Table 6
Method: The permethylated amino acid and peptides were screened against S. aureus and Streptoccus sanguis, as described below, and IC50 and MIC (minimum inhibitory concentration; minimum concentration needed to inhibit about 100 percent bacterial growth) values were determined. […]
as §1, §2

Molecule: CC[C@H](C)[C@@H](C(=O)N(C)[C@@H](Cc1ccccc1)C(=O)N(C)[C@@H](Cc1ccccc1)C(=O)N(C)[C@@H](Cc1ccccc1)C(=O)NC)N(C)C(=O)[C@H](Cc1ccccc1)N(C)C(=O)[C@H](CC(C)C)[N+](C)(C)C [PerM-LFIFFF, PerM-LeuPheIlePhePhePhe] (X2-[NMeF][NMeI][NMeF][NMeF][NMeF]-NHMe)
- S. aureus MIC ([1]; listed as permethylated LFIFFF-NH2): lower than 15 μg/ml
- % hemolysis at 350 μg/ml [2]: 12%

Molecule: PerM-PhePheIlePhePheHis (FFIFFH; also: permethylated) [PerM-FFIFFH]
- S. aureus IC50 [1]: 14 µg/mL
- S. aureus MIC [1]: 31 to 42 µg/mL
- % hemolysis at 350 μg/ml [2]: 0%
- MRSA IC50 [3]: 19 µg/mL
- MRSA MIC [3]: 21 to 42 µg/mL
- S. sanguis IC50 [4]: 18 µg/mL
- S. sanguis MIC [4]: 30 to 40 µg/mL

Molecule: PerM-LeuPhePhePheHisPhe (LFFFHF; also: permethylated) [PerM-LFFFHF]
- S. aureus IC50 [1]: 12 µg/mL
- S. aureus MIC [1]: 21 to 31 µg/mL
- % hemolysis at 350 μg/ml [2]: 4%
- MRSA IC50 [3]: 13 µg/mL
- MRSA MIC [3]: 15 to 21 µg/mL
- S. sanguis IC50 [4]: 19 µg/mL
- S. sanguis MIC [4]: 30 to 40 µg/mL

Molecule: Cc1onc(-c2ccccc2)c1C(=O)N[C@@H]1C(=O)N2[C@@H]1SC(C)(C)[C@@H]2C(=O)O [Oxacillin, reference compound]
- MIC [1]: 0.125 µM (≈ 0.0502 µg/mL)

Molecule: CNC(=O)[C@H](Cc1ccccc1)N(C)C(=O)[C@H](Cc1ccccc1)N(C)C(=O)[C@H](Cc1ccccc1)N(C)C(=O)[C@H](Cc1ccccc1)N(C)C(=O)[C@H](Cc1ccccc1)N(C)C(=O)[C@H](Cc1ccccc1)[N+](C)(C)C [PerA-FFFFFF, PerM-PhePhePhePhePhePhe] (X1-[NMeF][NMeF][NMeF][NMeF][NMeF]-NHMe)
- S. aureus MIC ([1]; listed as permethylated FFFFFF-NH2): lower than 15 μg/ml
- % hemolysis at 350 μg/ml [2]: 16%

Molecule: PerM-LeuPheIlePheHisPhe (LFIFHF; also: permethylated) [PerM-LFIFHF]
- S. aureus IC50 [1]: 12 µg/mL
- S. aureus MIC [1]: 21 to 31 µg/mL
- % hemolysis at 350 μg/ml [2]: 7%
- MRSA IC50 [3]: 14 µg/mL
- MRSA MIC [3]: 15 to 21 µg/mL
- S. sanguis IC50 [4]: 13 µg/mL
- S. sanguis MIC [4]: 20 to 40 µg/mL

Molecule: C[N+](C)(C)[C@@H](Cc1ccccc1)C(=O)N[C@@H](Cc1ccccc1)C(=O)N[C@@H](Cc1ccccc1)C(=O)N[C@@H](Cc1ccccc1)C(=O)N[C@@H](Cc1ccccc1)C(=O)N[C@@H](Cc1ccccc1)C(N)=O [reference compound] (X1-FFFFF-NH2)
- S. aureus IC50 [1]: > 250 µg/mL

Molecule: CNC(=O)[C@H](Cc1ccccc1)N(C)C(=O)[C@H](Cc1ccccc1)N(C)C(=O)[C@H](Cc1ccccc1)N(C)C(=O)[C@H](Cc1ccccc1)N(C)C(=O)[C@H](Cc1ccccc1)N(C)C(=O)[C@H](CC(C)C)[N+](C)(C)C [PerM-LFFFFF, PerM-LeuPhePhePhePhePhe] (X2-[NMeF][NMeF][NMeF][NMeF][NMeF]-NHMe)
- % hemolysis at 350 μg/ml [2]: 10%

Molecule: N-acetyl hexaPhe amide [N-Ac-hexaPhe, reference compound]
- MIC Value [1]: > 500 µM

Molecule: CC[C@H]1OC(=O)[C@H](C)[C@@H](O[C@H]2C[C@@](C)(OC)[C@@H](O)[C@H](C)O2)[C@H](C)[C@@H](O[C@@H]2O[C@H](C)C[C@H](N(C)C)[C@H]2O)[C@](C)(O)C[C@@H](C)C(=O)[C@H](C)[C@@H](O)[C@]1(C)O [Erythromycin, reference compound]
- MIC [1]: 0.5 µM (≈ 0.367 µg/mL)

Molecule: CC[C@H](C)[C@@H](C(=O)N(C)[C@@H](Cc1ccccc1)C(=O)N(C)[C@@H](Cc1ccccc1)C(=O)N(C)[C@@H](Cc1ccccc1)C(=O)NC)N(C)C(=O)[C@H](Cc1ccccc1)N(C)C(=O)[C@H](Cc1ccccc1)[N+](C)(C)C [PerM-FFIFFF, PerM-PhePheIlePhePhePhe] (X1-[NMeF][NMeI][NMeF][NMeF][NMeF]-NHMe)
- S. aureus MIC ([1]; listed as permethylated FFIFFF-NH2): lower than 15 μg/ml
- % hemolysis at 350 μg/ml [2]: 0%

Molecule: CNC(=O)[C@H](Cc1ccccc1)[N+](C)(C)C [PerA-F, permethylated Phe N-methylamide]
- MIC Value [1]: > 500 µM
- MIC Value ([4]; Table 5): > 500 µM
- IC50 ([4]; Table 5, average results): > 500 µM

— patent US5480971A, “Peralkylated oligopeptide mixtures” (Houghten Pharmaceuticals, Inc., priority 1994, dated 1996)
